Test results taken from patent US20210186925A1, “Applications Of YD1701 In Preparation Of Drugs For Treating ALDH1A3 High-Expression Tumors” (First Affiliated Hospital Third Military Medical University …, priority 2017, published 2021).

Test system: orthotopic CRC transplanted tumors
Experiment: orthotopic CRC transplanted tumors in mice
Type: in vivo
Details: YD1701 1 mg·kg^−1, 5-FU 10 mg·kg^−1, intraperitoneal, two weeks; three groups compared; FIG. 20
Description: To further assess the therapeutic potential of the YD1701, the inhibiting effects of the YD1701 and 5-FU(5-fluorouracil) on orthotopic CRC transplanted tumors in the mice are compared, and the experimental process is shown in FIG. 17. On the 20th day after the colons of mice of YD1701 are implanted with tumor micro-tissue blocks orthotopically, and the formation of the orthotopic transplanted tumors is determined by an in-vivo imaging system. […] Then, the determined mice with the orthotopic transplanted tumors are divided into three groups and subjected to intraperitoneal injection of YD1701 (1 mg·kg^−1), normal saline+DMSO and 5-FU (10 mg·kg^−1) for treatment for two weeks. The total survival time of the three groups of mice with the orthotopic transplanted tumors is compared.

O=c1[nH]cc(F)c(=O)[nH]1 [5-FU, 5-fluorouracil]
volume sizes of the tumors in situ in the colons: no obvious difference
